From patent US20250171457A1, “NITROGEN-CONTAINING HETEROCYCLIC COMPOUND HAVING NRF2 ACTIVATION EFFECT” (CHUGAI SEIYAKU KABUSHIKI KAISHA, priority 2022, published 2025)

System: Nrf2 transcriptional activity (pARE-Luc reporter) in HepG2 cells
Experiment: In vitro Nrf2 transcriptional activity measurement by ARE-dependent reporter assay in HepG2 cell
Format: cell-based, human
Conditions: Homo sapiens; HepG2 cells transfected with pARE-Luc, 4 hours at 37° C.; luciferase activity of Example 1-54 or Example 17-23 at 3.75 μM defined as 100%
In short: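 Luminescence readout (Bright-Glo) after 4 h, 37° C compound exposure of HepG2 cells carrying the ARE-luciferase vector pGL4.37. Each well converted to % response versus reference compound at 3.75 μM, and EC50 derived from dose-response curves.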

| Structure (SMILES) | EC50 |
| --- | --- |
| CN1CC=C(c2cc(Cl)c(C(=O)N3COc4c(cccc4-c4cc(N5CCOCC5)c(C(=O)O)cc4F)C3)c(Cl)c2)CC1 [Compound 2-3, 4-[3-[2,6-Dichloro-4-(1-methyl-3,6-dihydro-2H-pyridin-4-yl)benzoyl]-2,4-dihydro-1,3-benzoxazin-8-yl]-5-fluoro-2-morpholin-4-ylbenzoic acid] | 1.4 nM |
| Cn1cc(-c2cc(Cl)c(C(=O)N3CNc4c(cccc4-c4cc(N5CCOCC5)c(C(=O)O)cc4F)C3)c(Cl)c2)cn1 [Compound 18-8, 4-[3-[2,6-Dichloro-4-(1-methylpyrazol-4-yl)benzoyl]-2,4-dihydro-1H-quinazolin-8-yl]-5-fluoro-2-morpholin-4-ylbenzoic acid] | 2.8 nM |
| COCCN1CC[C@H](Oc2cc(Cl)c(C(=O)N3COc4c(cccc4-c4cc(N5CCOCC5)c(C(=O)O)cc4F)C3)c(Cl)c2)C1 [Compound 8-6, 4-[3-[2,6-Dichloro-4-[(3S)-1-(2-methoxyethyl)pyrrolidin-3-yl]oxybenzoyl]-2,4-dihydro-1,3-benzoxazin-8-yl]-5-fluoro-2-morpholin-4-ylbenzoic acid] | 2.7 nM |
| O=C(O)c1cc(F)c(-c2cccc3c2OCN(C(=O)c2c(Cl)cc(N4CCCN(C5COC5)CC4)cc2Cl)C3)cc1N1CCOCC1 [Compound 10-9, 4-[3-[2,6-Dichloro-4-[4-(oxetan-3-yl)-1,4-diazepan-1-yl]benzoyl]-2,4-dihydro-1,3-benzoxazin-8-yl]-5-fluoro-2-morpholin-4-ylbenzoic acid] | 1.2 nM |
| COCCN(C)c1cc(Cl)c(C(=O)N2COc3c(cccc3-c3cc(N4CCOCC4)c(C(=O)O)cc3F)C2)c(Cl)c1 [Compound 4-23, 4-[3-[2,6-Dichloro-4-[2-methoxyethyl(methyl)amino]benzoyl]-2,4-dihydro-1,3-benzoxazin-8-yl]-5-fluoro-2-morpholin-4-ylbenzoic acid] | 1.5 nM |
| Cn1nc2cncc(-c3cc(Cl)c(C(=O)N4COc5c(cccc5-c5cc(N6C7CCC6COC7)c(C(=O)O)cc5F)C4)c(Cl)c3)c2n1 [Compound 3-10, 4-[3-[2,6-Dichloro-4-(2-methyltriazolo[4,5-c]pyridin-7-yl)benzoyl]-2,4-dihydro-1,3-benzoxazin-8-yl]-5-fluoro-2-(3-oxa-8-azabicyclo[3.2.1]octan-8-yl)benzoic acid] | 4.7 nM |
| C[C@@H]1CN(c2cnc(C(=O)N3COc4c(cccc4-c4cc(N5C6CCC5COC6)c(C(=O)O)cc4F)C3)c(Cl)c2)[C@H](C)CN1C [Compound 19-6, 4-[3-[3-Chloro-5-[(2R,5R)-2,4,5-trimethylpiperazin-1-yl]pyridine-2-carbonyl]-2,4-dihydro-1,3-benzoxazin-8-yl]-5-fluoro-2-(3-oxa-8-azabicyclo[3.2.1]octan-8-yl)benzoic acid] | 6.3 nM |
| CC1(N2CCOCC2)CN(c2cc(Cl)c(C(=O)N3COc4c(cccc4-c4cc(N5C6CCC5COC6)c(C(=O)O)cc4F)C3)c(Cl)c2)C1 [Compound 11-6, 4-[3-[2,6-Dichloro-4-(3-methyl-3-morpholin-4-ylazetidin-1-yl)benzoyl]-2,4-dihydro-1,3-benzoxazin-8-yl]-5-fluoro-2-(3-oxa-8-azabicyclo[3.2.1]octan-8-yl)benzoic acid] | 2.4 nM |
| O=C(O)c1cc(F)c(-c2cccc3c2OCN(C(=O)c2c(Cl)cc(N4CC5(CN(CC6(F)COC6)C5)C4)cc2Cl)C3)cc1N1C2CCC1COC2 [Compound 7-1, 4-[3-[2,6-Dichloro-4-[6-[(3-fluorooxetan-3-yl)methyl]-2,6-diazaspiro[3.3]heptan-2-yl]benzoyl]-2,4-dihydro-1,3-benzoxazin-8-yl]-5-fluoro-2-(3-oxa-8-azabicyclo[3.2.1]octan-8-yl)benzoic acid] | 4.8 nM |
| CN(C)CCOc1cc(Cl)c(C(=O)N2COc3c(cccc3-c3ccc(C(=O)O)c(N4CCOCC4)c3)C2)c(Cl)c1 [Compound 4-44, 4-[3-[2,6-Dichloro-4-[2-(dimethylamino)ethoxy]benzoyl]-2,4-dihydro-1,3-benzoxazin-8-yl]-2-morpholin-4-ylbenzoic acid] | 16 nM |
| O=C(O)c1cc(F)c(-c2cccc3c2OCN(C(=O)c2c(Cl)cc(N4CC(N5CC(OC(F)(F)F)C5)C4)cc2Cl)C3)cc1N1C2CCC1COC2 [Compound 11-7, 4-[3-[2,6-Dichloro-4-[3-[3-(trifluoromethoxy)azetidin-1-yl]azetidin-1-yl]benzoyl]-2,4-dihydro-1,3-benzoxazin-8-yl]-5-fluoro-2-(3-oxa-8-azabicyclo [3.2.1]octan-8-yl)benzoic acid] | 5.2 nM |
| CN1C[C@H]2CC[C@@H]1CN2c1cc(Cl)c(C(=O)N2COc3c(cccc3-c3cc(N4C5CCC4COC5)c(C(=O)O)cc3F)C2)c(Cl)c1 [Compound 20-2, 4-[3-[2,6-Dichloro-4-[(1R,4R)-5-methyl-2,5-diazabicyclo[2.2.2]octan-2-yl]benzoyl]-2,4-dihydro-1,3-benzoxazin-8-yl]-5-fluoro-2-(3-oxa-8-azabicyclo[3.2.1]octan-8-yl)benzoic acid] | 24 nM |
| O=C(O)c1cc(F)c(-c2cccc3c2OCN(C(=O)c2c(Cl)cc(N4CC5(CCN(C6COC6)C5)C4)cc2Cl)C3)cc1N1C2CCC1COC2 [Compound 10-2, 4-[3-[2,6-Dichloro-4-[7-(oxetan-3-yl)-2,7-diazaspiro[3.4]octan-2-yl]benzoyl]-2,4-dihydro-1,3-benzoxazin-8-yl]-5-fluoro-2-(3-oxa-8-azabicyclo[3.2.1]octan-8-yl)benzoic acid] | 5.2 nM |
| CN1CCn2ncc(-c3cc(Cl)c(C(=O)N4COc5c(cccc5-c5cc(N6C7CCC6COC7)c(C(=O)O)cc5F)C4)c(Cl)c3)c2C1 [Compound 3-2, 4-[3-[2,6-Dichloro-4-(5-methyl-6,7-dihydro-4H-pyrazolo[1,5-a]pyrazin-3-yl)benzoyl]-2,4-dihydro-1,3-benzoxazin-8-yl]-5-fluoro-2-(3-oxa-8-azabicyclo[3.2.1]octan-8-yl)benzoic acid] | 6.8 nM |
| O=C(O)c1cc(F)c(-c2cccc3c2OCN(C(=O)c2c(Cl)cc(-c4ccn5cncc5c4)cc2Cl)C3)cc1N1C2CCC1COC2 [Compound 3-18, 4-[3-(2,6-Dichloro-4-imidazo[1,5-a]pyridin-7-ylbenzoyl)-2,4-dihydro-1,3-benzoxazin-8-yl]-5-fluoro-2-(3-oxa-8-azabicyclo[3.2.1]octan-8-yl)benzoic acid] | 20 nM |
| COCCN1CC2(C1)CN(c1cc(Cl)c(C(=O)N3COc4c(cccc4-c4cc(N5C6CCC5COC6)c(C(=O)O)cc4F)C3)c(Cl)c1)C2 [Compound 7-3, 4-[3-[2,6-Dichloro-4-[6-(2-methoxyethyl)-2,6-diazaspiro[3.3]heptan-2-yl]benzoyl]-2,4-dihydro-1,3-benzoxazin-8-yl]-5-fluoro-2-(3-oxa-8-azabicyclo[3.2.1]octan-8-yl)benzoic acid] | 18 nM |
| CN1CC2CCCC(C1)N2c1cc(Cl)c(C(=O)N2COc3c(cccc3-c3cc(N4C5CCC4COC5)c(C(=O)O)cc3F)C2)c(Cl)c1 [Compound 1-36, 4-[3-[2,6-Dichloro-4-(3-methyl-3,9-diazabicyclo[3.3.1]nonan-9-yl)benzoyl]-2,4-dihydro-1,3-benzoxazin-8-yl]-5-fluoro-2-(3-oxa-8-azabicyclo[3.2.1]octan-8-yl)benzoic acid] | 1.8 nM |
| O=C(O)c1cc(F)c(-c2cccc3c2OCN(C(=O)c2c(Cl)cc(N4CCN(C5CC5)CC4)cc2Cl)C3)cc1N1C2CCC1COC2 [Compound 4-12, 4-[3-[2,6-Dichloro-4-(4-cyclopropylpiperazin-1-yl)benzoyl]-2,4-dihydro-1,3-benzoxazin-8-yl]-5-fluoro-2-(3-oxa-8-azabicyclo[3.2.1]octan-8-yl)benzoic acid] | 2.1 nM |
| CN1C2CCC1CN(c1cc(Cl)c(C(=O)N3COc4c(cccc4-c4cc(N5C6CCC5COC6)c(C(=O)O)cc4F)C3)c(Cl)c1)C2 [Compound 9-7, 4-[3-[2,6-Dichloro-4-(8-methyl-3,8-diazabicyclo[3.2.1]octan-3-yl)benzoyl]-2,4-dihydro-1,3-benzoxazin-8-yl]-5-fluoro-2-(3-oxa-8-azabicyclo[3.2.1]octan-8-yl)benzoic acid] | 14 nM |
| CN1C[C@@H]2CC[C@H]1CN2c1cc(Cl)c(C(=O)N2COc3c(cccc3-c3cc(N4C5CCC4COC5)c(C(=O)O)cc3F)C2)c(Cl)c1 [Compound 20-3, 4-[3-[2,6-Dichloro-4-[(1S,4S)-5-methyl-2,5-diazabicyclo[2.2.2]octan-2-yl]benzoyl]-2,4-dihydro-1,3-benzoxazin-8-yl]-5-fluoro-2-(3-oxa-8-azabicyclo[3.2.1]octan-8-yl)benzoic acid] | 40 nM |
| CC1(C)COC2(CN(c3ccc(C(=O)N4COc5c(cccc5-c5cc(N6C7CCC6COC7)c(C(=O)O)cc5F)C4)c(Cl)c3)C2)OC1 [Compound 19-11, 4-[3-[2-Chloro-4-(7,7-dimethyl-5,9-dioxa-2-azaspiro[3.5]nonan-2-yl)benzoyl]-2,4-dihydro-1,3-benzoxazin-8-yl]-5-fluoro-2-(3-oxa-8-azabicyclo[3.2.1]octan-8-yl)benzoic acid] | 4.3 nM |
| O=C(O)c1cc(F)c(-c2cccc3c2OCN(C(=O)c2c(Cl)cc(-c4cnc5n4CCC5)cc2Cl)C3)cc1N1C2CCC1COC2 [Compound 3-22, 4-[3-[2,6-Dichloro-4-(6,7-dihydro-5H-pyrrolo[1,2-a]imidazol-3-yl)benzoyl]-2,4-dihydro-1,3-benzoxazin-8-yl]-5-fluoro-2-(3-oxa-8-azabicyclo[3.2.1]octan-8-yl)benzoic acid] | 21 nM |
| COC[C@H](O)Cn1cc(-c2cc(Cl)c(C(=O)N3COc4c(cccc4-c4ccc(C(=O)O)c(N5CCOCC5)c4)C3)c(Cl)c2)cn1 [Compound 15-4, 4-[3-[2,6-Dichloro-4-[1-[(2R)-2-hydroxy-3-methoxypropyl]pyrazol-4-yl]benzoyl]-2,4-dihydro-1,3-benzoxazin-8-yl]-2-morpholin-4-ylbenzoic acid] | 6.8 nM |
